Assay results: ChEMBL document CHEMBL5727642, “Bicyclic proline compounds” (2020)

Experiment: FLIPR Tetra Assay: IC50 (effective concentration) of compounds on the human and rat TRPA1 channels were determined using a FLIPR Tetra instrument. CHO cells expressing TRPA1 were plated into 384-well plates, incubated overnight at 37° C., and loaded with BD calcium indicator dye for 1 hr at 37° C. followed by 15 minutes. at room temperature. The assay buffer was Hank's Balanced Salt Solution (HBSS) containing 20 mM HEPES (pH readjusted to 7.4) along with 0.02% BSA.Following dye load and plate cool down, compounds were added to the cells using FLIPR Tetra. Plates were then incubated with compounds for 20 minutes at room temperature prior to adding agonist. Following this incubation, ˜EC80 concentration of cinnamaldehyde (75 uM for human TRPA1 and 45 uM for rat TRPA1) was added to active the channels and block of cinnamaldehyde induced calcium influx was measured.
An IC50 of 6.08 nM was found for `O=C(NCc1cc(-c2cnc(C(F)(F)F)nc2)ncc1Cl)[C@@H]1C2CC(C2)N1S(=O)(=O)c1ccc(F)cc1` in this work. An IC50 of 16.3 nM was found for `O=C(NCc1cc(-c2cnc(C(F)(F)F)nc2)ncc1C1CC1)[C@@H]1C2CC(C2)N1S(=O)(=O)c1ccc(F)cc1` in this work. An IC50 of 12.1 nM was found for `O=C(NCc1cc(-c2cnc(C(F)(F)F)nc2)cnc1C(F)(F)F)[C@@H]1C2CC(C2)N1S(=O)(=O)c1ccc(F)cc1` in this work. An IC50 of 10.6 nM was found for `O=C(NCc1cc(-c2cnc(C(F)(F)F)nc2)c(F)cn1)[C@@H]1C2CC(C2)N1S(=O)(=O)c1ccc(F)c(F)c1` in this work.
